# Reference: patent US8664236B2, “1H-pyrrolo[2,3 b]-pyridine derivatives” (Merck Patent GmbH, priority 2010, dated 2014)
# pIC50: −log10 of the molar value. Read-outs that look alike come from different tables or passages of the source.
# Key:
# [1] = target: PDK1 kinase in PC3 cells (PKB phosphorylation at Thr 308) (Homo sapiens (Human), UniProt O15530); experiment: Cellular testing of PDK1 kinase inhibitors in PC3 cells (Luminex, phospho-T308-PKB); type: cell-based; details: PKB phosphorylation at Thr 308 in PC3 cells; read-out: cellular IC50
# Method: Method for the Cellular Testing of PDK1 Kinase Inhibitors in PC3 Cells
# The cellular assay for the determination of the PDK1 kinase activity is carried out as a Luminex assay in the 96-well format. PC3 cells are sown at 20,000 cells per well in 100 μl of medium (45% of […]/45% of Ham's F12/10% of FCS) and incubated on the following day for 30 min with a serial dilution of the test substance (7 concentrations) under serum-free conditions. The cells are subsequently lysed using 90 μl of lysis buffer (20 mM tris/HCl pH 8.0, 150 mM NaCl, 1% of NP40, 10% of glycerol, 1% of phosphatase inhibitor I, 1% of phosphatase inhibitor II, 0.1% of protease inhibitor cocktail III, 0.01% of benzonase) per well, and the lysates are separated off from insoluble cell constituents by means of centrifugation through a 96-well filter plate (0.65 μm). The lysates are incubated overnight at 4° C. with shaking with Luminex beads to which an anti-total PKB antibody is coupled. The detection is carried out on the following day by addition of a phospho-T308-PKB antibody and a species-specific […] secondary antibody. The detection of phospho-T308-PKB is carried out by measurement in a Luminex100 instrument by determination of 100 events per cavity in a measurement time of 60 sec. […] The values of the batches treated with test substance are calculated therefrom as percentage of control, and IC50 values are determined by means of RS1.
# [2] = target: PDK1 (His6-PDK1(Δ1-50)) (Homo sapiens (Human), UniProt O15530); experiment: Test for the inhibition of PDK1 (enzymatic, flashplate, 33P-ATP); type: biochemical
# Method: 4. Test for the Inhibition of PDK1
# The experimental batches are carried out in a flashplate system with 384 wells/microtitration plate.
# The test substances are employed in corresponding concentrations (if desired in a dilution series). The control is carried out without test substance. The reaction is stopped using standard methods and washed. The activity of the kinase is measured via the incorporated radioactivity in top count. In order to determine the non-specific kinase reaction (blank value), the experimental batches are carried out in the presence of 100 nM staurosporine.
# The radioactivity (decompositions per minute) of the blank value (no use of test substance in the presence of staurosporine) is subtracted from all other radioactivity values. The controls (kinase activity without test substance) are set equal to 100 percent and all other radioactivity values (after subtracting the blank value) are expressed set in relation thereto (for example in % of the control).
# [3] = enzymatic PDK1 inhibition assay, read-out: enzymatic IC50
# Sequence of PDK1 (His6-PDK1(Δ1-50)) (O15530 51-556): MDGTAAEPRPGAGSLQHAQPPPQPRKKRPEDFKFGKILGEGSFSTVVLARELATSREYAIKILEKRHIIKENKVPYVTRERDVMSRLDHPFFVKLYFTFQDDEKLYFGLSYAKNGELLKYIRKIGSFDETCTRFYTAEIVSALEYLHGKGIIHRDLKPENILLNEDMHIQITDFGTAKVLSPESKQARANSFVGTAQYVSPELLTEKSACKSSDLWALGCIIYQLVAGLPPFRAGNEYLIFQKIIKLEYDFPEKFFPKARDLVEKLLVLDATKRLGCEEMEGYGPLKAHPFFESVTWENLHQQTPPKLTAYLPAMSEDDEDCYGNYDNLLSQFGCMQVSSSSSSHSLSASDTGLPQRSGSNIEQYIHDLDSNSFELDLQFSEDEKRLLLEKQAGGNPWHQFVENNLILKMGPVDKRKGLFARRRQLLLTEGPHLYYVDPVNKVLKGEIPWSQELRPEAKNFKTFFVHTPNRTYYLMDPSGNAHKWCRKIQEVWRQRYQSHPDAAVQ
# Sequence of PDK1 kinase in PC3 cells (PKB phosphorylation at Thr 308) (O15530 whole entry): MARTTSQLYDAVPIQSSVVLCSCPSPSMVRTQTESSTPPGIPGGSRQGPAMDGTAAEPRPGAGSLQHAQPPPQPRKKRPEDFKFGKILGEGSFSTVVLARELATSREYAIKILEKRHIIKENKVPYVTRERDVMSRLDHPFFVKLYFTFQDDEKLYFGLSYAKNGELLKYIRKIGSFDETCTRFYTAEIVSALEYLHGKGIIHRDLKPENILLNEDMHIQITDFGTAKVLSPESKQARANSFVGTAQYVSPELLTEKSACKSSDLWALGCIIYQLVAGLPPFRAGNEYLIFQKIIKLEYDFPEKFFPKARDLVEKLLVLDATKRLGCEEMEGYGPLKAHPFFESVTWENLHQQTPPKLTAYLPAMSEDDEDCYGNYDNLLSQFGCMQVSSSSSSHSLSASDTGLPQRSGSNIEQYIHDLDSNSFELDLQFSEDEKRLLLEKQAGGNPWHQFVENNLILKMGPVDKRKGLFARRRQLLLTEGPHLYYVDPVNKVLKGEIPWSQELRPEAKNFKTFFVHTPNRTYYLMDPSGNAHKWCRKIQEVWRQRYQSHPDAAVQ
SMILES,pIC50 [1],"pIC50 [2, 3]",pIC50 [2]
"Cn1cc(-c2cnc3[nH]cc(-c4cc(C(C)(C)c5ccccc5)nc(N)n4)c3c2)cn1 [A2, 4-(1-Methyl-1-phenylethyl)-6-[5-(1-methyl-1H-pyrazol-4-yl)-1H-pyrrolo[2,3-b]pyridin-3-yl]pyrimidin-2-ylamine]",6.85,7.19,–
"Cn1cc(-c2cnc3[nH]cc(-c4cc(C5(c6ccccc6)CC5)nc(N)n4)c3c2)cn1 [A3, 4-[5-(1-Methyl-1H-pyrazol-4-yl)-1H-pyrrolo[2,3-b]pyridin-3-yl]-6-(1-phenylcyclopropyl)pyrimidin-2-ylamine]",6.96,7.23,–
"COc1ccc(N(C[C@H](O)CO)c2cc(-c3c[nH]c4ncc(-c5cnn(C)c5)cc34)nc(N)n2)cc1 [A5, (S)-3-[{2-Amino-6-[5-(1-methyl-1H-pyrazol-4-yl)-1H-pyrrolo-[2,3-b]pyridin-3-yl]pyrimidin-4-yl}-(4-methoxyphenyl)amino]-propane-1,2-diol]",5.17,7.62,–
"Cn1cc(-c2cnc3[nH]cc(-c4cc(C5(c6ccc(Cl)cc6)CCCC5)nc(N)n4)c3c2)cn1 [A7, 4-[1-(4-Chlorophenyl)cyclopentyl]-6-[5-(1-methyl-1H-pyrazol-4-yl)-1H-pyrrolo[2,3-b]pyridin-3-yl]pyrimidin-2-ylamine]",5.85,6.06,–
"CN(c1cccc(Cl)c1)c1cc(-c2c[nH]c3ncc(-c4cnn(C)c4)cc23)nc(N)n1 [A8, N4-(3-Chlorophenyl)-N4-methyl-6-[5-(1-methyl-1H-pyrazol-4-yl)-1H-pyrrolo[2,3-b]pyridin-3-yl]pyrimidine-2,4-diamine]",6.70,7.29,–
"CN(c1cc(-c2c[nH]c3ncc(-c4cnn(C)c4)cc23)nc(N)n1)c1ccccc1Cl [A10, N4-(2-Chlorophenyl)-N4-methyl-6-[5-(1-methyl-1H-pyrazol-4-yl)-1H-pyrrolo[2,3-b]pyridin-3-yl]pyrimidine-2,4-diamine]",7.59,8.12,–
"CN(c1ccccc1)c1cc(-c2c[nH]c3ncc(-c4cnn(C)c4)cc23)nc(N)n1 [A11, N4-Methyl-6-[5-(1-methyl-1H-pyrazol-4-yl)-1H-pyrrolo[2,3-b]-pyridin-3-yl]-N4-phenylpyrimidine-2,4-diamine]",6.10,7.78,–
"CCN(Cc1ccccc1)c1cc(-c2c[nH]c3ncc(-c4cnn(C)c4)cc23)nc(N)n1 [A14, N4-Benzyl-N4-ethyl-6-[5-(1-methyl-1H-pyrazol-4-yl)-1H-pyrrolo[2,3-b]pyridin-3-yl]pyrimidine-2,4-diamine]",6.28,7.29,–
"CC(C)n1cc(-c2cnc3[nH]cc(-c4cc(N5CCc6cc(F)ccc65)nc(N)n4)c3c2)cn1 [A18, 4-(5-Fluoro-2,3-dihydroindol-1-yl)-6-[5-(1-isopropyl-1H-pyrazol-4-yl)-1H-pyrrolo[2,3-b]pyridin-3-yl]pyrimidin-2-ylamine]",< 5.00,5.23,–
"CC(C)n1cc(-c2cnc3[nH]cc(-c4cc(N(C)c5ccccc5Cl)nc(N)n4)c3c2)cn1 [A19, N4-(2-Chlorophenyl)-6-[5-(1-isopropyl-1H-pyrazol-4-yl)-1H-pyrrolo[2,3-b]pyridin-3-yl]-N4-methylpyrimidine-2,4-diamine]",6.40,7.52,–
"CCN(c1cc(-c2c[nH]c3ncc(-c4cnn(C)c4)cc23)nc(N)n1)c1nncs1 [A20, N4-Ethyl-6-[5-(1-methyl-1H-pyrazol-4-yl)-1H-pyrrolo[2,3-b]pyridin-3-yl]-N4-1,3,4-thiadiazol-2-ylpyrimidine-2,4-diamine]",< 5.00,6.81,–
"COCC(O)CN(c1ccccc1)c1cc(-c2c[nH]c3ncc(-c4cnn(C)c4)cc23)nc(N)n1 (stereo not shown) [A21, 1-({2-Amino-6-[5-(1-methyl-1H-pyrazol-4-yl)-1H-pyrrolo[2,3-b]-pyridin-3-yl]pyrimidin-4-yl}phenylamino)-3-methoxypropan-2-ol]",6.28,7.96,–
"Cn1cc(-c2cnc3[nH]cc(-c4cc(N(CCC#N)c5ccccc5Cl)nc(N)n4)c3c2)cn1 [A30, 3-[{2-amino-6-[5-(1-methyl-1H-pyrazol-4-yl)-1H-pyrrolo[2,3-b]-pyridin-3-yl]pyrimidin-4-yl}-(2-chlorophenyl)amino]propionitrile]",–,–,8.04
CN(c1cccc(F)c1)c1cc(-c2c[nH]c3ncc(-c4cnn(C)c4)cc23)ncn1 [A30a],6.18,–,–

# Continued, in another order:
pIC50 [1],"pIC50 [2, 3]",SMILES,pIC50 [2]
6.55,7.47,"CN(c1cccc(F)c1)c1cc(-c2c[nH]c3ncc(-c4cnn(C)c4)cc23)nc(N)n1 [A1, N4-(3-Fluorophenyl)-N4-methyl-6-[5-(1-methyl-1H-pyrazol-4-yl)-1H-pyrrolo[2,3-b]pyridin-3-yl]pyrimidine-2,4-diamine]",–
7.57,8.01,"CN(c1cc(-c2c[nH]c3ncc(-c4cnn(C)c4)cc23)nc(N)n1)c1ccccc1F [A9, N4-(2-Fluorophenyl)-N4-methyl-6-[5-(1-methyl-1H-pyrazol-4-yl)-1H-pyrrolo[2,3-b]pyridin-3-yl]pyrimidine-2,4-diamine]",–
6.16,7.92,"CCN(c1ccccc1)c1cc(-c2c[nH]c3ncc(-c4cnn(C)c4)cc23)nc(N)n1 [A12, N4-Ethyl-6-[5-(1-methyl-1H-pyrazol-4-yl)-1H-pyrrolo[2,3-b]-pyridin-3-yl]-N4-phenylpyrimidine-2,4-diamine]",–
6.92,7.34,"CCN(c1ccc(Cl)cc1)c1cc(-c2c[nH]c3ncc(-c4cnn(C)c4)cc23)nc(N)n1 [A13, N4-(4-Chlorophenyl)-N4-ethyl-6-[5-(1-methyl-1H-pyrazol-4-yl)-1H-pyrrolo[2,3-b]pyridin-3-yl]pyrimidine-2,4-diamine]",–
5.68,–,"CC(C)n1cc(-c2cnc3[nH]cc(-c4cc(N(CCO)c5ccccc5Cl)nc(N)n4)c3c2)cn1 [A15, 2-[{2-Amino-6-[5-(1-isopropyl-1H-pyrazol-4-yl)-1H-pyrrolo[2,3-b]pyridin-3-yl]pyrimidin-4-yl)-(2-chlorophenyl)amino]-ethanol]",–
8.59,8.33,"Cn1cc(-c2cnc3[nH]cc(-c4cc(N(CCO)c5ccccc5Cl)nc(N)n4)c3c2)cn1 [A16, 2-[{2-Amino-6-[5-(1-methyl-1H-pyrazol-4-yl)-1H-pyrrolo[2,3-b]-pyridin-3-yl]pyrimidin-4-yl}-(2-chlorophenyl)amino]ethanol]",–
< 5.00,6.70,"Cn1cc(-c2cnc3[nH]cc(-c4cc(N5CCc6cc(F)ccc65)nc(N)n4)c3c2)cn1 [A17, 4-(5-Fluoro-2,3-dihydroindol-1-yl)-6-[5-(1-methyl-1H-pyrazol-4-yl)-1H-pyrrolo[2,3-b]pyridin-3-yl]pyrimidin-2-ylamine]",–
< 5.00,7.05,"Cn1cc(-c2cnc3[nH]cc(-c4cc(N(CC(O)CO)c5cccc(C#N)c5)nc(N)n4)c3c2)cn1 (stereo not shown) [A22, 3-[{2-Amino-6-[5-(1-methyl-1H-pyrazol-4-yl)-1H-pyrrolo[2,3-b]-pyridin-3-yl]pyrimidin-4-yl}-(2,3-dihydroxypropyl)amino]-benzonitrile]",–
< 5.00,8.32,"Cn1cc(-c2cnc3[nH]cc(-c4cc(N(CCC(=O)O)c5ccccc5Cl)nc(N)n4)c3c2)cn1 [A23, 3-[{2-Amino-6-[5-(1-methyl-1H-pyrazol-4-yl)-1H-pyrrolo[2,3-b]-pyridin-3-yl]pyrimidin-4-yl)-(2-chlorophenyl)amino]propionic acid]",–
6.33,7.16,"COC(=O)CN(c1ccc(Cl)cc1)c1cc(-c2c[nH]c3ncc(-c4cnn(C)c4)cc23)nc(N)n1 [A24, Methyl [{2-amino-6-[5-(1-methyl-1H-pyrazol-4-yl)-1H-pyrrolo-[2,3-b]pyridin-3-yl]pyrimidin-4-yl)-(4-chlorophenyl)amino]acetate]",–
7.46,8.19,"Cn1cc(-c2cnc3[nH]cc(-c4cc(N(CCO)c5ccc(F)cc5F)nc(N)n4)c3c2)cn1 [A25, 2-[{2-Amino-6-[5-(1-methyl-1H-pyrazol-4-yl)-1H-pyrrolo[2,3-b]-pyridin-3-yl]pyrimidin-4-yl)-(2,4-difluorophenyl)amino]ethanol]",–
7.64,8.30,"Cn1cc(-c2cnc3[nH]cc(-c4cc(N(CCO)c5ccccc5F)nc(N)n4)c3c2)cn1 [A26, 2-[{2-Amino-6-[5-(1-methyl-1H-pyrazol-4-yl)-1H-pyrrolo[2,3-b]-pyridin-3-yl]pyrimidin-4-yl)-(2-fluorophenyl)amino]ethanol]",–
